Reference: patent US6991812B2, “Agent for preventing, improving or treating hypertension” (Kao Corporation, priority 2000, dated 2006)

System: male spontaneous hypertensive rats (SHR)
Experiment: Immediate effect on blood pressure in SHR, 1 hour after oral administration, tail artery systolic blood pressure
Assay type: in vivo, rat
Settings: Example 6, organic acid, SHR aged 15 weeks, mean ± standard error
Method: The blood pressure of each of male spontaneous hypertensive rats (SHR) was preliminarily continuously measured for 7 days by means of a commercially available non-invasive sphygmomanometer (manufactured by Softlon Co.), thereby fully accustoming the rats to the sphygmomanometry, and an evaluation test was then started. All the rats were bred (in a breeding chamber in a rat zone) under conditions of a temperature of 25±1° C., a relative humidity of 55±10% and a lighting time of 12 hours (from 7 a.m. to 7 p.m.).
The thus-obtained test results were expressed by a mean and standard error to conduct a Student's t-test. A level of significance was defined as at most 5%.
Six rats aged 15 weeks at the time the administration test was started were used in each group. The systolic blood pressure of a tail artery of each rat was measured after 1 hour from the beginning of the administration.
In Control Group, water was orally administered. In Comparative Group 1, a 0.2% aqueous solution of ferulic acid was orally administered. […]
Six rats aged 15 weeks at the time the administration test was started were used in each group. The systolic blood pressure of a tail artery of each rat was measured after 1 hour from the beginning of oral administration. […]
In Control Group, a 1% aqueous solution of sugar was orally administered. […] The dose was determined to be 15 mL/kg.

Compound: COc1cc(/C=C/C(=O)O)ccc1O [Comp. Group 2, ferulic acid]
- Systolic blood pressures, Before administration (n=6, baseline): 208.0 ± 4.1 mmHg
- Systolic blood pressures, After 1 hour from administration (n=6, oral aqueous solution): 179.7 ± 4.4 mmHg
